Results taken from ChEMBL document CHEMBL1201862, “PubChem BioAssay data set” (2004).
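Assay format: 96-well plates, 48-hour exposure. GI50 = concentration required for 50% inhibition of growth.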 Calls of active or inactive are those of the source. Rule as the data show it: active = GI50 up to about 1.1 µM and inactive = higher.

Columns and labels:
Assay in all cases: growth of human tumour cells (NCI), 48 h
[1] = tested on: 786-0
[2] = tested on: A498
[3] = tested on: A549
[4] = tested on: ACHN
[5] = tested on: BT-549
[6] = tested on: CAKI-1
[7] = tested on: CCRF-CEM
[8] = tested on: COLO 205
[9] = tested on: DU-145
[10] = tested on: EKVX
[11] = tested on: HCC 2998
[12] = tested on: HCT-116
[13] = tested on: HCT-15
[14] = tested on: HL-60
[15] = tested on: HOP-62
[16] = tested on: HOP-92
[17] = tested on: HT-29
[18] = tested on: IGROV-1
[19] = tested on: K562
[20] = tested on: KM12
[21] = tested on: LOX IMVI
[22] = tested on: M14
[23] = tested on: MCF7
[24] = tested on: MDA-MB-231
[25] = tested on: MDA-MB-435
[26] = tested on: MDA-N
[27] = tested on: MOLT-4
[28] = tested on: NCI-H226
[29] = tested on: NCI-H23
[30] = tested on: NCI-H522
[31] = tested on: NCI/ADR-RES
[32] = tested on: OVCAR-3
[33] = tested on: OVCAR-4
[34] = tested on: OVCAR-5
[35] = tested on: OVCAR-8
[36] = tested on: PC-3
[37] = tested on: RPMI-8226
[38] = tested on: SF-268
[39] = tested on: SF-295
[40] = tested on: SF-539
[41] = tested on: SK-MEL-28
[42] = tested on: SK-MEL-2
[43] = tested on: SK-MEL-5
[44] = tested on: SK-OV-3
[45] = tested on: SN12C
[46] = tested on: SNB-19
[47] = tested on: SR
[48] = tested on: SW-620
[49] = tested on: T47D
[50] = tested on: TK-10
[51] = tested on: U-251
[52] = tested on: UACC-257
[53] = tested on: UACC-62
[54] = tested on: UO-31
[55] = tested on: Hs-578T
[56] = tested on: Malme-3M
[57] = tested on: NCI-H460
[58] = tested on: RXF 393
[59] = tested on: SNB-75

## CC(C)(C)OC(=O)NCC(=O)N1CCN(C(=O)CNC(=O)OC(C)(C)C)CC1
[1]
  GI50: > 100 µM (inactive)
[2]
  GI50: > 100 µM (inactive)
[3]
  GI50: > 100 µM (inactive)
[4]
  GI50: > 100 µM (inactive)
[5]
  GI50: > 100 µM (inactive)
[6]
  GI50: > 100 µM (inactive)
[7]
  GI50: > 100 µM (inactive)
[8]
  GI50: > 100 µM (inactive)
[9]
  GI50: > 100 µM (inactive)
[10]
  GI50: > 100 µM (inactive)
[11]
  GI50: > 100 µM (inactive)
[12]
  GI50: > 100 µM (inactive)
[13]
  GI50: > 100 µM
[14]
  GI50: > 100 µM (inactive)
[15]
  GI50: > 100 µM (inactive)
[16]
  GI50: > 100 µM (inactive)
[17]
  GI50: > 100 µM (inactive)
[18]
  GI50: > 100 µM (inactive)
[19]
  GI50: > 100 µM (inactive)
[20]
  GI50: > 100 µM (inactive)
[21]
  GI50: > 100 µM (inactive)
[22]
  GI50: > 100 µM (inactive)
[23]
  GI50: > 100 µM (inactive)
[24]
  GI50: > 100 µM (inactive)
[25]
  GI50: > 100 µM (inactive)
[26]
  GI50: > 100 µM (inactive)
[27]
  GI50: > 100 µM (inactive)
[28]
  GI50: > 100 µM (inactive)
[29]
  GI50: > 100 µM (inactive)
[30]
  GI50: 2.55 µM (inactive)
[31]
  GI50: > 100 µM (inactive)
[32]
  GI50: > 100 µM (inactive)
[33]
  GI50: > 100 µM (inactive)
[34]
  GI50: > 100 µM (inactive)
[35]
  GI50: > 100 µM (inactive)
[36]
  GI50: > 100 µM (inactive)
[37]
  GI50: > 100 µM (inactive)
[38]
  GI50: 18.7 µM (inactive)
[39]
  GI50: > 100 µM (inactive)
[40]
  GI50: > 100 µM (inactive)
[41]
  GI50: > 100 µM (inactive)
[42]
  GI50: > 100 µM (inactive)
[43]
  GI50: > 100 µM (inactive)
[44]
  GI50: > 100 µM (inactive)
[45]
  GI50: > 100 µM (inactive)
[46]
  GI50: > 100 µM (inactive)
[47]
  GI50: > 100 µM (inactive)
[48]
  GI50: > 100 µM (inactive)
[49]
  GI50: > 100 µM (inactive)
[50]
  GI50: > 100 µM (inactive)
[51]
  GI50: > 100 µM (inactive)
[52]
  GI50: > 100 µM (inactive)
[53]
  GI50: > 100 µM (inactive)
[54]
  GI50: > 100 µM (inactive)

## CC(CO)CCNc1ncnc2c1ncn2CCC#N (stereo not drawn)
[1]
  GI50: > 100 µM (inactive)
[2]
  GI50: > 100 µM (inactive)
[3]
  GI50: > 100 µM (inactive)
[4]
  GI50: > 100 µM (inactive)
[6]
  GI50: > 100 µM (inactive)
[7]
  GI50: > 100 µM (inactive)
[8]
  GI50: > 100 µM (inactive)
[9]
  GI50: > 100 µM (inactive)
[10]
  GI50: > 100 µM (inactive)
[11]
  GI50: > 100 µM (inactive)
[12]
  GI50: > 100 µM (inactive)
[14]
  GI50: > 100 µM (inactive)
[15]
  GI50: > 100 µM (inactive)
[16]
  GI50: > 100 µM (inactive)
[17]
  GI50: > 100 µM (inactive)
[55]
  GI50: > 100 µM (inactive)
[18]
  GI50: > 100 µM (inactive)
[19]
  GI50: > 100 µM (inactive)
[20]
  GI50: > 100 µM (inactive)
[21]
  GI50: > 100 µM (inactive)
[22]
  GI50: > 100 µM (inactive)
[23]
  GI50: > 100 µM (inactive)
[24]
  GI50: > 100 µM (inactive)
[25]
  GI50: > 100 µM (inactive)
[26]
  GI50: > 100 µM (inactive)
[27]
  GI50: > 100 µM (inactive)
[56]
  GI50: > 100 µM (inactive)
[28]
  GI50: > 100 µM (inactive)
[29]
  GI50: > 100 µM (inactive)
[57]
  GI50: > 100 µM (inactive)
[30]
  GI50: > 100 µM (inactive)
[31]
  GI50: > 100 µM (inactive)
[32]
  GI50: > 100 µM (inactive)
[33]
  GI50: > 100 µM (inactive)
[34]
  GI50: > 100 µM (inactive)
[35]
  GI50: > 100 µM (inactive)
[36]
  GI50: > 100 µM (inactive)
[37]
  GI50: > 100 µM (inactive)
[58]
  GI50: > 100 µM (inactive)
[38]
  GI50: > 100 µM (inactive)
[39]
  GI50: > 100 µM (inactive)
[40]
  GI50: > 100 µM (inactive)
[41]
  GI50: > 100 µM (inactive)
[43]
  GI50: > 100 µM (inactive)
[44]
  GI50: > 100 µM (inactive)
[45]
  GI50: > 100 µM (inactive)
[46]
  GI50: > 100 µM (inactive)
[59]
  GI50: > 100 µM (inactive)
[47]
  GI50: > 100 µM (inactive)
[48]
  GI50: > 100 µM (inactive)
[49]
  GI50: > 100 µM (inactive)
[50]
  GI50: > 100 µM (inactive)
[52]
  GI50: > 100 µM (inactive)
[53]
  GI50: > 100 µM (inactive)
[54]
  GI50: > 100 µM (inactive)

## CC(C)CC(=O)O[C@H]1C(=O)O[C@@H]2C[C@H]3[C@H](C)C(=O)C(O[C@@H]4O[C@H](CO)[C@@H](O)[C@H](O)[C@H]4O)=C[C@]3(C)[C@H]3[C@@H](O)[C@H](O)[C@]4(C(=O)O)OC[C@]32[C@@H]14 [BRUCEOSIDE E]
[5]
  GI50: 95.1 µM (inactive)
[20]
  GI50: 70.1 µM (inactive)
[22]
  GI50: 91.2 µM (inactive)
[25]
  GI50: 61.2 µM (inactive)
[26]
  GI50: 82 µM (inactive)
[29]
  GI50: 52.4 µM (inactive)
[34]
  GI50: 94 µM (inactive)
[36]
  GI50: 80.9 µM (inactive)
[44]
  GI50: 52.1 µM (inactive)
[59]
  GI50: 78 µM (inactive)
[49]
  GI50: 94.6 µM (inactive)
[50]
  GI50: 59.6 µM (inactive)
[53]
  GI50: 60 µM (inactive)
[54]
  GI50: 71.4 µM (inactive)
